Results reported in the kinase profiling compilation of Christmann-Franck et al. (2016).
Blank lines part the entries; values can stand above or below the molecule they belong to.

Assays:
Test in all cases: radiometric filter-binding kinase assay, Kinase HotSpot
Conditions in all cases: compound 0.5 µM; ATP 10 µM
[1] = molecular target: HIPK2 (human) (UniProt Q9H2X6)
[2] = molecular target: MLTK (human) (UniProt Q9NYL2)
[3] = molecular target: ALK (human) (UniProt Q9UM73)
[4] = molecular target: PHKG2 (human) (UniProt P15735)
[5] = molecular target: EPHA8 (human) (UniProt P29322)
[6] = molecular target: MAPK10 (human) (UniProt P53779)
[7] = molecular target: MAPK14 (human) (UniProt Q16539)
[8] = molecular target: NEK9 (human) (UniProt Q8TD19)
NEK9 (human), sequence (Q8TD19 whole entry, looked up): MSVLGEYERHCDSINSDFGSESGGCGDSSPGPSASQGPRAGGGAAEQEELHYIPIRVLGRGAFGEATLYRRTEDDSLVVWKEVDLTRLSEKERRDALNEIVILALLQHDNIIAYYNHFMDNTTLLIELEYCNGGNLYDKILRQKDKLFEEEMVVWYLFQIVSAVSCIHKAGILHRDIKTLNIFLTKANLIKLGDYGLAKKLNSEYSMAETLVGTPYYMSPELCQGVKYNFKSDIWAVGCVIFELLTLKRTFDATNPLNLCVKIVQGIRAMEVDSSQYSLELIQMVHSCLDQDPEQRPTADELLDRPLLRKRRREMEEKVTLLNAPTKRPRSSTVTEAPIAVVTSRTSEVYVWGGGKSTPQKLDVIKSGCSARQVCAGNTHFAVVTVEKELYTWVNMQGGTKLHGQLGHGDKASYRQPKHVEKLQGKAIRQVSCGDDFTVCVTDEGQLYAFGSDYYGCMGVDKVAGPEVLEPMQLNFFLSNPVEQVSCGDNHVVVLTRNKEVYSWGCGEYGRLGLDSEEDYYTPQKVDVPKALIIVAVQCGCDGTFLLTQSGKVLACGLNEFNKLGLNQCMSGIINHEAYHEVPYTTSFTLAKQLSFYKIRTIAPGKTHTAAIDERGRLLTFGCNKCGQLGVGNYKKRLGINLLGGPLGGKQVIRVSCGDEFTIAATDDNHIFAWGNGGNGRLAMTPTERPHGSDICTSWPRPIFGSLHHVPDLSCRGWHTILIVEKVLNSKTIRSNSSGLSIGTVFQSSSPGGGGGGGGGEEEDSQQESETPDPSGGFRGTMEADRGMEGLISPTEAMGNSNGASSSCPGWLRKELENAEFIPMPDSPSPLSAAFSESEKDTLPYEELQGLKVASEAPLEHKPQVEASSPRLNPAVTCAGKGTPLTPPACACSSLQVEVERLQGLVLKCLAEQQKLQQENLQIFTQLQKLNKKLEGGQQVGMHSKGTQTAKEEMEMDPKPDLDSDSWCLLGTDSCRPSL

[9] = molecular target: ACVRL1 (human) (UniProt P37023)
[10] = molecular target: MAP3K9 (human) (UniProt P80192)
[11] = molecular target: DYRK3 (human) (UniProt O43781)
[12] = molecular target: PAK2 (human) (UniProt Q13177)
[13] = molecular target: PLK1 (human) (UniProt P53350)
[14] = molecular target: RPS6KA5 KD2 (human) (UniProt O75582)
[15] = molecular target: MELK (human) (UniProt Q14680)
[16] = molecular target: ZAP70 (human) (UniProt P43403)
[17] = molecular target: LCK (human) (UniProt P06239)
[18] = molecular target: CSK (human) (UniProt P41240)
[19] = molecular target: MAPK3 (human) (UniProt P27361)
MAPK3 (human), sequence (P27361 whole entry, looked up): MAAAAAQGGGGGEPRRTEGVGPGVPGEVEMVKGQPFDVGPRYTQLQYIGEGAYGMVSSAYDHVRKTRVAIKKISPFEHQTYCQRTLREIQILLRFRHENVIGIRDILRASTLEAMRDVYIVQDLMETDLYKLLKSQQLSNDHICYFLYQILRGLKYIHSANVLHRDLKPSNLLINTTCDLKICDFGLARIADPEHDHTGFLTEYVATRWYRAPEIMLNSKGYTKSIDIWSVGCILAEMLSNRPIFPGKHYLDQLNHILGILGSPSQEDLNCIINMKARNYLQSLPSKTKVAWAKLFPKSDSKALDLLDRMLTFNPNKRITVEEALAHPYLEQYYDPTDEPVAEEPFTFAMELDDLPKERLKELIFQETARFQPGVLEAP

[20] = molecular target: STK3 (human) (UniProt Q13188)
[21] = molecular target: SGK3 (human) (UniProt Q96BR1)
SGK3 (human), sequence (Q96BR1 whole entry, looked up): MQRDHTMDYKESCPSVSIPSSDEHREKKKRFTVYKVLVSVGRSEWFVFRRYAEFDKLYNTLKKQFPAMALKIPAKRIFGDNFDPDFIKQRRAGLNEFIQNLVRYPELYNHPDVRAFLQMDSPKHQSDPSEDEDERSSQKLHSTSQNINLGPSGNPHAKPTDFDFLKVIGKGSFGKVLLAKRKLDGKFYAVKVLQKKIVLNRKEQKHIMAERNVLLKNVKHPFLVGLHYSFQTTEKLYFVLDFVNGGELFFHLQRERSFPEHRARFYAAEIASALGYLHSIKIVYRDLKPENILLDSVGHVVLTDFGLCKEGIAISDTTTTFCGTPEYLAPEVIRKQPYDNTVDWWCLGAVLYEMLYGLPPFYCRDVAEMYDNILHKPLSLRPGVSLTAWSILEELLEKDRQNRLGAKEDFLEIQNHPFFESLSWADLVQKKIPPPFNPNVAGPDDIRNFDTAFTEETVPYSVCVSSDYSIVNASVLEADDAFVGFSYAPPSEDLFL

[22] = molecular target: GRK4 (human) (UniProt P32298)
[23] = molecular target: PAK7 (human) (UniProt Q9P286)
[24] = molecular target: PRKD2 (human) (UniProt Q9BZL6)
[25] = molecular target: NLK (human) (UniProt Q9UBE8)
[26] = molecular target: IKBKE (human) (UniProt Q14164)
[27] = molecular target: PHKG1 (human) (UniProt Q16816)
PHKG1 (human), sequence (Q16816 whole entry, looked up): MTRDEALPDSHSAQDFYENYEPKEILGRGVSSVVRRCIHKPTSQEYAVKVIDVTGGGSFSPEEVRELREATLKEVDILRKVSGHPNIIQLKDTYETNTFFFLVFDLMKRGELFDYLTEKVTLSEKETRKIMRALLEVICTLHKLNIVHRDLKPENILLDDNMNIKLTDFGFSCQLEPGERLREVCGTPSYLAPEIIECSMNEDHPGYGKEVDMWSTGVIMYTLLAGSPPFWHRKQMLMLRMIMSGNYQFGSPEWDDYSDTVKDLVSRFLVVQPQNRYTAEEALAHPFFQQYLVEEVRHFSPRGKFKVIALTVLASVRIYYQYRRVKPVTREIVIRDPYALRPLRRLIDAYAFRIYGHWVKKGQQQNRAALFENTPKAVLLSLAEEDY

[28] = molecular target: CDK5 CDK5R1 p25 (human) (UniProt Q00535+Q15078)
[29] = molecular target: SRC (human) (UniProt P12931)
SRC (human), sequence (P12931 whole entry, looked up): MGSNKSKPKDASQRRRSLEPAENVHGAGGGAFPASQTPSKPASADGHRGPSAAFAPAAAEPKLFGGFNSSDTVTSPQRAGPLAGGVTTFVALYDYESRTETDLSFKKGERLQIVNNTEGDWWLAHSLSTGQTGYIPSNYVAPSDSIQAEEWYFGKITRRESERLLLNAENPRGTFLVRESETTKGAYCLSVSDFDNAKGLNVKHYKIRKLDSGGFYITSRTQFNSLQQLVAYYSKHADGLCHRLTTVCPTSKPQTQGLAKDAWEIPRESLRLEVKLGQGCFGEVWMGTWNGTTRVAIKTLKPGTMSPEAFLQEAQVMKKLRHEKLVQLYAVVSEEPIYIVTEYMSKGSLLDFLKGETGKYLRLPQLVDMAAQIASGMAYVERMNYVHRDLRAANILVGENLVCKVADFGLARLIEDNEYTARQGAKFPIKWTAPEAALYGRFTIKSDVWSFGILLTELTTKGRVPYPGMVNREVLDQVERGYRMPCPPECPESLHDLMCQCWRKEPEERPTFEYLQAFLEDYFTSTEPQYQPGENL

[30] = molecular target: DDR2 (human) (UniProt Q16832)
[31] = molecular target: CAMK1D (human) (UniProt Q8IU85)
CAMK1D (human), sequence (Q8IU85 whole entry, looked up): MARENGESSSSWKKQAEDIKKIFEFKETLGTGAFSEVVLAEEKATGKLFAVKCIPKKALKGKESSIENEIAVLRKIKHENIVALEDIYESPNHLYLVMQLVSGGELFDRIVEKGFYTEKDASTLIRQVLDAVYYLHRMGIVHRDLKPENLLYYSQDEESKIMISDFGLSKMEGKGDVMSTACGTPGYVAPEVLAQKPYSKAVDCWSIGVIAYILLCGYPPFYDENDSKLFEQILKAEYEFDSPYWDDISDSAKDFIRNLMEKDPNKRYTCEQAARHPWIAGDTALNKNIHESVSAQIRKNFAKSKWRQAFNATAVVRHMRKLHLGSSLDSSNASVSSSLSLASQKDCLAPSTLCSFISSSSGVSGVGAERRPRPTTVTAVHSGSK

[32] = molecular target: MARK2 (human) (UniProt Q7KZI7)
MARK2 (human), sequence (Q7KZI7 whole entry, looked up): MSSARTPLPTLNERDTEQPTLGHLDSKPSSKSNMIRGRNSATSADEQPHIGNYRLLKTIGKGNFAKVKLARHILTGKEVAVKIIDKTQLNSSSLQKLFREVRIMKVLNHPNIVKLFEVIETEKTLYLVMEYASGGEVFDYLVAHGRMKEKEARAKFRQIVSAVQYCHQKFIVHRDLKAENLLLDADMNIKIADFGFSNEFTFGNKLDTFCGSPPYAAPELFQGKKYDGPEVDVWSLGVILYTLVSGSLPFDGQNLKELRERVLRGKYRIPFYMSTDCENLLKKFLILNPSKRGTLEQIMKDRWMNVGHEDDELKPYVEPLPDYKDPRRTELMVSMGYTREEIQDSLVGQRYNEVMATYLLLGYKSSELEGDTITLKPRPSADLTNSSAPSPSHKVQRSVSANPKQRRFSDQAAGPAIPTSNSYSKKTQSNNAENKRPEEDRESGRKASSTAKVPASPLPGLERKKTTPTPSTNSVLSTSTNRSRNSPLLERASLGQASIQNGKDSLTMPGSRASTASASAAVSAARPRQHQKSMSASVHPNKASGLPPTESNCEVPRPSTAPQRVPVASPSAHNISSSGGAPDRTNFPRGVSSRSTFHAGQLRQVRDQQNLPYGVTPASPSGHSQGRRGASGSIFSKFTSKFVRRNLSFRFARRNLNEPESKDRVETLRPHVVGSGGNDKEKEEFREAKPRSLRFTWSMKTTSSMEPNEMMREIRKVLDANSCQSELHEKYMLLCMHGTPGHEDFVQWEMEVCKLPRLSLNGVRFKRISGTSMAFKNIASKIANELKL

[33] = molecular target: PBK (human) (UniProt Q96KB5)
[34] = molecular target: CLK1 (human) (UniProt P49759)
CLK1 (human), sequence (P49759 whole entry, looked up): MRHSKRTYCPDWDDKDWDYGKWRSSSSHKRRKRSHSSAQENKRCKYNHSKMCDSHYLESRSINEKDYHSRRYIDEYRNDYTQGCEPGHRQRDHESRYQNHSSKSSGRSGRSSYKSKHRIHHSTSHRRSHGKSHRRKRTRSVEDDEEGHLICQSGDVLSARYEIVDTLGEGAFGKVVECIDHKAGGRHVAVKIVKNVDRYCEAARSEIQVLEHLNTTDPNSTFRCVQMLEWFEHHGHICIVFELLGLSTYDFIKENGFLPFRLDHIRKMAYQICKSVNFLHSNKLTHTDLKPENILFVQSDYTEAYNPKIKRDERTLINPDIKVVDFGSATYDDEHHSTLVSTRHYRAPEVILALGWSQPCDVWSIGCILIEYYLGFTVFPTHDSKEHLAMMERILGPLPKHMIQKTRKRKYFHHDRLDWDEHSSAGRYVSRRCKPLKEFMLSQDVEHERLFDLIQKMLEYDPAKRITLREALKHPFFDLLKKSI

[35] = molecular target: PRKCA (human) (UniProt P17252)
[36] = molecular target: PAK4 (human) (UniProt O96013)
[37] = molecular target: EPHA3 (human) (UniProt P29320)
[38] = molecular target: PRKD3 (human) (UniProt O94806)
[39] = molecular target: AKT2 (human) (UniProt P31751)
[40] = molecular target: IGF1R (human) (UniProt P08069)
[41] = molecular target: NTRK3 (human) (UniProt Q16288)
[42] = molecular target: GRK6 (human) (UniProt P43250)
GRK6 (human), sequence (P43250 whole entry, looked up): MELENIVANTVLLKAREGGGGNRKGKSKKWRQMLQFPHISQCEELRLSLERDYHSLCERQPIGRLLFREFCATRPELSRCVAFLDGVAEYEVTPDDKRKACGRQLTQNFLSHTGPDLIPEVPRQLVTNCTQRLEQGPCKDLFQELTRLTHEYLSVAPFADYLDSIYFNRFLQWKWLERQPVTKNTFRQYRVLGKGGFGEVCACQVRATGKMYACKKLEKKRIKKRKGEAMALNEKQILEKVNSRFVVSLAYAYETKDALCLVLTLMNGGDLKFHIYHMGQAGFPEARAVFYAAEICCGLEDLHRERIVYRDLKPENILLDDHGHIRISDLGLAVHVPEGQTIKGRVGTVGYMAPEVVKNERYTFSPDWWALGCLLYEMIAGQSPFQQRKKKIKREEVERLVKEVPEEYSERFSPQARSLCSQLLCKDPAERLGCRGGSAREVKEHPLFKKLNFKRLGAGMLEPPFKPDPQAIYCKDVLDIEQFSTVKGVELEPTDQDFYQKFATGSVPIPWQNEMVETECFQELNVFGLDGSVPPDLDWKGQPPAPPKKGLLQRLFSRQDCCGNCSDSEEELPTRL

residual activity [1]: 106% | residual activity [2]: 94.2% | residual activity [3]: 49.2% | residual activity [4]: 79.7% | residual activity [5]: 94.1% | residual activity [6]: 98.9% | residual activity [7]: 93.7% | residual activity [9]: 94.3% | residual activity [10]: 0.446% | residual activity [11]: 98.5% | residual activity [12]: 66.6% | residual activity [13]: 95.4% | residual activity [14]: 13.2% | residual activity [15]: 4.87% | residual activity [16]: 65.4% | residual activity [17]: 19.8% | residual activity [18]: 55.1% | residual activity [19]: 88.4% | residual activity [20]: 1.93% | residual activity [21]: 93.5% | residual activity [22]: 94.4% | residual activity [23]: 90.4% | residual activity [24]: 62.9% | residual activity [25]: 96.9% | residual activity [26]: 9.85% | residual activity [27]: 2.34% | residual activity [28]: 73.3% | residual activity [29]: 39.6% | residual activity [30]: 380%
Structure (SMILES): CO[C@@H]1[C@H](N(C)C(=O)c2ccccc2)C[C@H]2O[C@]1(C)n1c3ccccc3c3c4c(c5c6ccccc6n2c5c31)C(=O)NC4
residual activity [8]: 64.4%

Structure (SMILES): CC(C)(C)c1cc(C=C(C#N)C#N)cc(Br)c1O
residual activity [1]: 110% | residual activity [2]: 91.2% | residual activity [3]: 97.9% | residual activity [31]: 111% | residual activity [4]: 106% | residual activity [5]: 100% | residual activity [6]: 92.5% | residual activity [7]: 98.3% | residual activity [8]: 103% | residual activity [32]: 81.6% | residual activity [33]: 102% | residual activity [9]: 105% | residual activity [10]: 90.2% | residual activity [34]: 112% | residual activity [35]: 81.4% | residual activity [11]: 102% | residual activity [12]: 96.5% | residual activity [13]: 92.3% | residual activity [14]: 108% | residual activity [15]: 91.6% | residual activity [16]: 91.6% | residual activity [17]: 87.8% | residual activity [36]: 124% | residual activity [18]: 106% | residual activity [19]: 105% | residual activity [37]: 102% | residual activity [38]: 92.7% | residual activity [21]: 97.7% | residual activity [22]: 101% | residual activity [23]: 119% | residual activity [39]: 97.7% | residual activity [24]: 108% | residual activity [25]: 93.6% | residual activity [26]: 86.8% | residual activity [27]: 96.7% | residual activity [40]: 96.6% | residual activity [28]: 98.2% | residual activity [29]: 87.4% | residual activity [30]: 105% | residual activity [41]: 104% | residual activity [42]: 94.6%

Structure (SMILES): COc1cc(Nc2c(C#N)cnc3cc(OCCCN4CCN(C)CC4)c(OC)cc23)c(Cl)cc1Cl
residual activity [1]: 89% | residual activity [3]: 66% | residual activity [4]: 103% | residual activity [5]: 10.5% | residual activity [7]: 88.6% | residual activity [8]: 94% | residual activity [32]: 99.9% | residual activity [33]: 104% | residual activity [9]: 67.6% | residual activity [10]: 16.5% | residual activity [34]: 81% | residual activity [35]: 49.5% | residual activity [11]: 91.8% | residual activity [12]: 69.4% | residual activity [13]: 93.8% | residual activity [14]: 90.8% | residual activity [15]: 25.8% | residual activity [16]: 101% | residual activity [17]: 1.88% | residual activity [36]: 95.8% | residual activity [18]: 12.3% | residual activity [19]: 98.9% | residual activity [37]: 31.7% | residual activity [38]: 42.2% | residual activity [20]: 13.9% | residual activity [21]: 94.4% | residual activity [22]: 92.4% | residual activity [23]: 83.6% | residual activity [39]: 104% | residual activity [24]: 35.5% | residual activity [25]: 101% | residual activity [26]: 75.4% | residual activity [27]: 52.1% | residual activity [40]: 91.5% | residual activity [28]: 95.9% | residual activity [29]: 6.05% | residual activity [30]: 105% | residual activity [42]: 99.5%

Structure (SMILES): O=C1c2ccccc2-c2nc3nnnn3nc21
residual activity [1]: 107% | residual activity [2]: 69.8% | residual activity [3]: 83.5% | residual activity [31]: 93.9% | residual activity [4]: 96.1% | residual activity [5]: 92.6% | residual activity [6]: 55% | residual activity [7]: 88.6% | residual activity [8]: 119% | residual activity [32]: 94.2% | residual activity [33]: 64.5% | residual activity [9]: 105% | residual activity [10]: 63.3% | residual activity [34]: 79.4% | residual activity [35]: 91.4% | residual activity [11]: 88.6% | residual activity [12]: 96.2% | residual activity [13]: 28.6% | residual activity [14]: 68.7% | residual activity [15]: 55.7% | residual activity [16]: 68.2% | residual activity [17]: 70.5% | residual activity [36]: 91.4% | residual activity [18]: 84.8% | residual activity [19]: 87% | residual activity [37]: 81.6% | residual activity [38]: 83.4% | residual activity [21]: 90.4% | residual activity [22]: 68.4% | residual activity [23]: 93.4% | residual activity [39]: 55.8% | residual activity [24]: 91.7% | residual activity [25]: 98.2% | residual activity [26]: 89.2% | residual activity [27]: 92.5% | residual activity [40]: 91.1% | residual activity [28]: 46.4% | residual activity [29]: 80.4% | residual activity [30]: 58.7% | residual activity [41]: 87.2% | residual activity [42]: 58%

Structure (SMILES): N#C/C(=C\c1ccc(O)c(O)c1)C(=O)NCc1ccccc1
residual activity [1]: 101% | residual activity [3]: 105% | residual activity [31]: 96.4% | residual activity [4]: 96% | residual activity [5]: 92% | residual activity [6]: 98% | residual activity [7]: 108% | residual activity [8]: 97.2% | residual activity [32]: 88.2% | residual activity [33]: 84.2% | residual activity [9]: 106% | residual activity [10]: 95.5% | residual activity [34]: 98.6% | residual activity [35]: 99.1% | residual activity [11]: 99.6% | residual activity [12]: 76.8% | residual activity [13]: 97.3% | residual activity [14]: 102% | residual activity [15]: 100% | residual activity [16]: 101% | residual activity [17]: 95.7% | residual activity [36]: 111% | residual activity [18]: 101% | residual activity [19]: 106% | residual activity [37]: 97.2% | residual activity [38]: 90.2% | residual activity [21]: 102% | residual activity [22]: 101% | residual activity [23]: 96.1% | residual activity [39]: 98.4% | residual activity [24]: 101% | residual activity [25]: 110% | residual activity [26]: 105% | residual activity [27]: 92.6% | residual activity [40]: 85.1% | residual activity [28]: 101% | residual activity [29]: 94.8% | residual activity [30]: 97.2% | residual activity [41]: 98.8% | residual activity [42]: 101%
